Test results from article PMC4961458 (eLife, 2016).

Assays:
uterus of juvenile rats = assay: Juvenile rat uterus assays; type: in vivo, Sprague Dawley rats; conditions: fulvestrant 50 mg/kg
Source text: […] Rats were euthanized 4 hr after the final dose. Uteri were then dissected, weighed and fixed for histological examination. A small portion of tissue was saved prior to fixation for mRNA isolation and gene expression analysis.
H&E stained sections from bilateral representative uterine horn cross-sections were examined from two animals treated with the compounds shown. Endometrial cell height was digitally measured from the basement membrane to the apical (luminal) surface (orange line), using a digitally scanned image at 20X magnification. Obliquely cut areas were avoided. Three digital measurements were taken from each section (n = 6).
Estrogen receptor was detected using the mouse monoclonal anti-ER (clone 1D5, Dako), incubated for 60 min at RT at a dilution of 0.5 µg/ml, and visualized after secondary rabbit anti-mouse antibody binding with Powervision DAB (Leica Powersystems). H-scores were estimated manually, incorporating both intensity and percentage of positive nuclei, using the following formula: (0 x% negative)+(1 x% weak)+(2 x% moderate)+(3 x% strong)

[1] = tested on: HCI-003 patient derived xenograft tumors; assay: HCI-003 patient derived xenograft efficacy; type: in vivo, mice; conditions: tamoxifen 60 mg/kg/day orally; fulvestrant 200 mg/kg 3x/week; 38 days
Source text: Like MCF7, HCI-003 tumors are ER+, E2 dependent and tamoxifen sensitive (Figure 4—figure supplement 1C). […] Lack of efficacy in this ER-negative model is consistent with the GDC-0810 mechanism of action being selectively mediated through ER.
The HCI-003 model was established at the University of Utah, Huntsman Cancer Center via direct implantation of both primary tumor material into immune compromised mice ([DeRose et al., 2011]). HCI-003 is wild-type at the ESR1 ligand binding domain. Exogenous estradiol is required for robust growth of this patient derived tumor line, and is supplied in the form of estradiol impregnated beeswax pellets. Tumor fragments obtained from the Huntsman Cancer Center were surgically implanted into the cleared mammary fat pad of 19 day old female NOD.CB17-Prkdc^scid/NcrCrl mice (Charles River Laboratories). The right mammary fat pad of recipient animals was exposed by a 1 cm incision on the ventral mid-line at the level of the fourth mammary. The blood vessels were cauterized and the fat pad blunt dissected from the abdominal wall and skin. Tumor fragments were excised from donor animals, chopped into fragments approximately 8 mm^3 (2 × 2 × 2 mm), implanted in the region of the cleared mammary fat pad, and the incision was closed with wound clips. Estradiol impregnated beeswax pellets were implanted subcutaneously into the interscapular space of recipient animals on the day of tumor implant. Recipient animals were ovariectomized 19 days after tumor fragment implant. One group of animals was designated as a control for estradiol independent tumor growth (Vehicle-E2) and the estradiol impregnated pellets were excised on the first day of dosing. All mice were housed and maintained according to the animal-use guidelines of the Institutional Animal Care and Use Committee (IACUC), conforming to California State legal and ethical practices.

TamR1 tumors = assay: Tamoxifen-resistant MCF7 (TamR1) xenograft efficacy; type: in vivo, mice; conditions: 0.18 mg 60 day E2 pellets; tamoxifen 120 mg/kg/day p.o.; fulvestrant 200 mg/kg 3x/week s.c.; GDC-0810 10, 30 or 100 mg/kg/day p.o.; 27 days
Method: We previously generated a tamoxifen-resistant xenograft model, TamR1, by chronically treating MCF7 tumor bearing mice with tamoxifen until a resistant tumor emerged ([Lai et al., 2015]). […] These experiments were conducted in mice with relatively high levels of circulating estradiol, with estradiol being delivered via 0.72 mg 60 day release E2 pellets that are reported by the manufacturer (Innovative Research) to deliver between 300 and 400 pg/ml estradiol. Under these conditions the high E2 reduces the steady state ERα protein levels, thus confounding the readout of ERα protein as a pharmacodynamic endpoint (Figure 5—figure supplement 1). […] These pellets are sufficient to support tumor growth but only modestly reduce ERα levels (Figure 5—figure supplement 1).
Figure 5. […] (A) Tamoxifen-resistant MCF7 tumors were implanted in animals supplemented with 60-day release 0.18 mg 17β-estradiol pellets. […] S.c. is sub-cutaneous dosing, and p.o. is per os (by mouth) oral gavage dosing. * Denotes significance (p<0.05) compared to Vehicle in 1-Way ANOVA and Dunnett's Multiple Comparison Test. Figure 5—figure supplement 1. Effects of estradiol pellet on ERα levels in MCF7-TamR1 xenograft tumors. TamR1 tumor fragments were implanted into Crl:NU-Foxn1^nu mice implanted with either 0.72 or 0.18 mg/60 day 17-β estradiol pellets. Once tumors were established pellets were removed from 1 group. 28 days after pellet removal ERα protein levels were determined for 4 tumors from each group. Data is presented as average compared to Vehicle (-E2). Error is standard deviation. * Denotes significance (p<0.05) compared to Vehicle (-E2) by T-test. [drawing 7] […] (A) ERα protein levels were determined by western blot analysis of tumors 8 hr following the final compound treatment on day 27. […] KI-67 expression, quantified from IHC analysis. […]
The tamoxifen-resistant derivative of the ER+ human tumor cell line, MCF7 (TamR1) was developed by Seragon Pharmaceuticals, Inc ([Lai et al., 2015]). […] The tumors which continued to grow under these conditions were serially passaged and evaluated for continued tamoxifen resistance. […]

WHIM20 tumors = type: in vivo, mice; conditions: no E2 pellets; GDC-0810 100 mg/kg/day; tamoxifen 60 mg/kg/day; fulvestrant 50 mg/kg days 1, 3 and 7, 25 mg/kg weekly thereafter; 35 days
Source text: Figure 8. […] (B) Gene expression analysis of WHIM20 tumors after 4 days of dosing, harvested 8 hr after the final dose. […] (E) WHIM20 tumors were implanted in mice without supplemental 17β-estradiol pellets.
The WHIM20 patient derived xenograft model (WHIM20) was established via direct implantation of metastatic tumor material into immune compromised mice at Washington University in St. Louis ([Li et al., 2013]).
Tumors were established from fragments obtained from Washington University by subcutaneous implantation via 10G trocar into the right flank of 6–7 week old female NOD.CB17-Prkdc^scid/NcrCrl mice (Charles River Laboratories) and NOD.Cg-Prkdc^scid Il2rg^tm1Wjl/SzJ mice (Jackson Laboratories). Tumor line was propagated by serial transplantation. Animals were ovariectomized prior to initiation of treatment.

CC/C(=C(\c1ccccc1)c1ccc(OCCN(C)C)cc1)c1ccccc1 [Tamoxifen]
Uterine wet weight (uterus of juvenile rats; tamoxifen 60 mg/kg orally once a day for 3 days, GDC-0810 0.1 or 10 mg/kg, relative to vehicle control): increases uterine wet weight | Endometrial epithelial cell morphology (histology, endometrial cell height) (uterus of juvenile rats; tamoxifen 60 mg/kg, GDC-0810 0.1 and 10 mg/kg): induced a cuboidal to columnar morphological change | Anti-tumor activity, HCI-003 PDX (Figure 4—figure supplement 1C) [1]: display anti-tumor activity | Tumor growth response, TamR1 xenograft, lower E2 (TamR1 tumors): stimulated tumor growth | Tumor growth response, WHIM20 PDX (WHIM20 tumors): induced tumor stasis
